# Data: patent US10183936B2, “Hepatitis B core protein allosteric modulators” (priority 2014, dated 2019)
# How the values were obtained:
# AD38 cells = assay: Viability of AD38 cells (Promega CellTiter-Glo) at the end of compound treatment; assay type: cell-based; details: 10 μM compound, 6 days, luminescence normalized against DMSO control wells (controls being 100%)
# In short: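 Luminescent CellTiter-Glo read-out, taken after supernatant was swapped for tetracycline-free 2% FBS medium with 1% DMSO, gave percent viability relative to DMSO controls set at 100%. Cells were plated at 50,000/well and exposed to compound, added as a 10× stock in 10% DMSO, for 6 days at 37° C.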
# [1] = tested on: HBV viral production in AD38 cells; assay: Viral load production in AD38 cells by quantitative PCR of the HBV core sequence in supernatant; assay type: cell-based; details: 10 μM compound, 6 days at 37° C., viral load in supernatant compared against DMSO control wells; for activity at 10 µM: Hepatitis B virus, 144 h, read-out: AD38 Viral Load (CpAM/DMSO %) at 10 μM
# In short: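 Read-out is TaqMan qPCR of the HBV core region in supernatant, quantitated against standards and referenced to DMSO controls (≥3 per plate). Cells: AD38 at 50,000/well, exposed to compound (added as 10× stock in 10% DMSO) for 6 days at 37° C.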
Compound,AD38 Viability Normalized Result (CPAM/DMSO %) at 10 μM (AD38 cells),activity at 10 µM [1],AD38 Viral Load (CpAM/DMSO %) at 10 μM [1]
O=C(NCc1cccnc1)c1ccc2c(c1)NC(=O)c1ccccc1N2Cc1ccccc1 [Compound 1493],80%,51%,
O=C(Nc1ccncc1)c1ccc2c(c1)NC(=O)c1ccccc1N2Cc1ccccc1 [Compound 1494],60%,115%,
Cc1c(C(=O)NCCc2ccc(-c3ccccc3)cc2)ccc2c1NC(=O)c1ccccc1S2 [Compound 1495],77%,9%,
Cc1c(C(=O)Nc2cccc(-c3ccccc3)c2)ccc2c1NC(=O)c1ccccc1S2 [Compound 1496],18%,2%,
O=C1Nc2c(cc(F)c(C(=O)NCCc3ccc(-c4ccccc4)cc3)c2F)Sc2ccccc21 [Compound 1497],49%,9%,
CN1c2ccc(C(=O)NCCc3ccccn3)cc2NC(=O)c2ccccc21 [Compound 1498],82%,1%,
CN1c2ccc(C(=O)NCc3cccnc3)cc2NC(=O)c2ccccc21 [Compound 1499],84%,2%,
"O=C1Nc2cc(COCCc3ccccc3)ccc2Sc2ccccc21 [Compound 1501, 8-(phenethoxymethyl) dibenzo [b,f] [1,4] thiazepin-11(10H)-one]",71%,37%,
Cc1nnc(NC(=O)c2ccc3c(c2)NC(=O)c2cc(F)ccc2S3)o1 [Compound 1503],87%,40%,
O=C1Nc2cc(S(=O)(=O)Nc3cncnc3)ccc2Sc2ccccc21 [Compound 1505],85%,81%,
O=C1Nc2cc(S(=O)(=O)Nc3cncnc3)ccc2[S+]([O-])c2ccccc21 (stereo not drawn) [Compound 1506],85%,72%,
CN(C)S(=O)(=O)c1ccc(CCNC(=O)c2cc3c(cc2F)Sc2ccccc2C(=O)N3)cc1 [Compound 1507],96%,11%,
O=C(Nc1ccncc1)c1cc2c(cc1F)Sc1ccccc1C(=O)N2 [Compound 1508],81%,31%,
O=C(Nc1cccc(-c2ccccc2)c1)c1cc2c(cc1F)Sc1ccccc1C(=O)N2 [Compound 1509],29%,15%,
O=C(NCc1cncs1)c1ccc2c(c1)NC(=O)c1ccccc1N2Cc1ccccc1 [Compound 1510],82%,62%,
O=C(NCCc1cncs1)c1ccc2c(c1)NC(=O)c1ccccc1N2Cc1ccccc1 [Compound 1511],85%,38%,
CN(C)S(=O)(=O)c1ccc(CCNC(=O)c2ccc3c(c2)NC(=O)c2ccccc2N3Cc2ccccc2)cc1 [Compound 1512],99%,27%,
Cc1c(C(=O)NCc2cncs2)ccc2c1NC(=O)c1ccccc1S2 [Compound 1513],82%,2%,
Cc1c(C(=O)NCc2cnco2)ccc2c1NC(=O)c1ccccc1S2 [Compound 1514],84%,13%,
Cc1c(C(=O)NCc2cccnc2)ccc2c1NC(=O)c1ccccc1S2 [Compound 1515],82%,2%,
Cc1c(C(=O)Nc2ccncc2)ccc2c1NC(=O)c1ccccc1S2 [Compound 1516],82%,30%,
Cc1c(C(=O)NCCc2ccc(S(=O)(=O)N(C)C)cc2)ccc2c1NC(=O)c1ccccc1S2 [Compound 1517],78%,2%,
O=C1Nc2c(cc(F)c(C(=O)NCc3cncnc3)c2F)Sc2ccccc21 [Compound 1518],85%,67%,
O=C1Nc2c(cc(F)c(C(=O)NCCc3ccccn3)c2F)Sc2ccccc21 [Compound 1519],81%,73%,
CN1c2ccc(C(=O)NCc3cncnc3)cc2NC(=O)c2ccccc21 [Compound 1520],81%,1%,
CN1c2ccc(C(=O)NCCc3ccc(-c4ccccc4)cc3)cc2NC(=O)c2ccccc21 [Compound 1521],22%,1%,
CCN1c2ccc(C(=O)NCCc3ccccn3)cc2NC(=O)c2ccccc21 [Compound 1522],82%,1%,

Compound,AD38 Viability Normalized Result (CPAM/DMSO %) at 10 μM (AD38 cells),activity at 10 µM [1],AD38 Viral Load (CpAM/DMSO %) at 10 μM [1]
CCN1c2ccc(C(=O)NCCc3cccnc3)cc2NC(=O)c2ccccc21 [Compound 1523],70%,1%,
CCN1c2ccc(C(=O)NCCc3ccc(-c4ccccc4)cc3)cc2NC(=O)c2ccccc21 [Compound 1524],18%,2%,
NC(=O)c1ccc2c(c1)NC(=O)c1ccccc1S2 [Compound 1525],85%,78%,
O=C1Nc2cc(S(=O)(=O)Nc3ccc(F)cc3F)ccc2Sc2ccccc21 [Compound 1526],92%,57%,
O=C(NCCc1cncs1)c1ccc2c(c1)NC(=O)c1ccccc1[S+]2[O-] (stereo not drawn) [Compound 1527],116%,19%,
O=C(NCCc1cncs1)c1ccc2c(c1)NC(=O)c1cccc(F)c1S2 [Compound 1528],85%,4%,
Cc1c(C(=O)NCCc2cncnc2)ccc2c1NC(=O)c1ccccc1S2 [Compound 1529],111%,12%,
O=C1Nc2c(cc(F)c(C(=O)NCc3cnco3)c2F)Sc2ccccc21 [Compound 1530],93%,70%,
O=C1Nc2c(cc(F)c(C(=O)NCCc3cccnc3)c2F)Sc2ccccc21 [Compound 1531],96%,53%,
CN1c2ccc(C(=O)NCCc3cncs3)cc2NC(=O)c2ccccc21 [Compound 1532],112%,17%,
CCN1c2ccc(C(=O)NCc3cncnc3)cc2NC(=O)c2ccccc21 [Compound 1533],105%,2%,
CCN1c2ccc(C(=O)NCc3cncs3)cc2NC(=O)c2ccccc21 [Compound 1534],109%,5%,
O=C(NCc1cncs1)c1ccc2c(c1)NC(=O)c1ccccc1[SH]2O (stereo not drawn) [Compound 1535],85%,,108%
O=C(NCc1cncs1)c1ccc2c(c1)NC(=O)c1ccccc1[SH]2O (stereo not drawn) [Compound 1536],120%,,2%
O=C(Nc1nnco1)c1ccc2c(c1)NC(=O)c1cc(F)ccc1S2 [Compound 1537],98%,36%,
O=C(NCc1cncnc1)c1ccc2c(c1)NC(=O)c1c(F)cccc1S2 [Compound 1540],87%,12%,
O=C(NCc1cncs1)c1ccc2c(c1)NC(=O)c1c(F)cccc1S2 [Compound 1541],117%,11%,
O=C(NCc1cnco1)c1ccc2c(c1)NC(=O)c1c(F)cccc1S2 [Compound 1542],95%,34%,
O=C(NCCc1cncnc1)c1ccc2c(c1)NC(=O)c1c(F)cccc1S2 [Compound 1543],90%,72%,
O=C1Nc2cc(S(=O)(=O)Nc3ccc(Cl)cc3F)ccc2Sc2ccccc21 [Compound 1544],97%,40%,
O=C1Nc2c(cc(F)c(C(=O)NCc3cncs3)c2F)Sc2ccccc21 [Compound 1545],88%,59%,
O=C1Nc2c(cc(F)c(C(=O)NCc3cccnc3)c2F)Sc2ccccc21 [Compound 1546],89%,65%,
CN1c2ccc(C(=O)NCc3cnco3)cc2NC(=O)c2ccccc21 [Compound 1547],90%,16%,
CN1c2ccc(C(=O)NCCc3cncnc3)cc2NC(=O)c2ccccc21 [Compound 1548],85%,28%,
CN1c2ccc(C(=O)NCCc3cccnc3)cc2NC(=O)c2ccccc21 [Compound 1549],109%,7%,
CCN1c2ccc(C(=O)NCc3cccnc3)cc2NC(=O)c2ccccc21 [Compound 1550],87%,1%,
O=C(NCCc1nnc[nH]1)c1ccc2c(c1)NC(=O)c1ccccc1S2 [Compound 1551],91%,51%,
